This is an account of results in PubChem BioAssay AID264 (DTP/NCI, 2004).

In this assay the test system is nude mice, LX-1 lung xenograft intrarenal, tumor weight T/C. Put plainly: NCI In Vivo Anticancer Drug Screen. Data for tumor model Human Lung LX-1 Xenograft (intrarenal inoculation) in NU/NU Swiss (nude) mice. To be noted: endpoint: mean tumor weight change, higher = larger tumour. As to the method: The antitumor activity of compounds was measured in mice bearing transplantable tumors. Survival or tumor size were measured and the results are expressed as the measurement made in the treated group (T) divided by the measurement made in the vehicle treated control group (C). The tumor model used in this assay is Human Lung LX-1 Xenograft (intrarenal inoculation) in NU/NU Swiss (nude) mice

[1] abbreviates: dose: 100.0 mg/kg/injection, schedule: Q01DX010 (sc), vehicle: saline with Tween-80.
[2] abbreviates: dose: 200.0 mg/kg/injection, schedule: Q01DX010 (sc), vehicle: saline with Tween-80.
[3] abbreviates: dose: 300.0 mg/kg/injection, schedule: Q04DX003 (sc), vehicle: saline.
[4] abbreviates: dose: 600.0 mg/kg/injection, schedule: Q04DX003 (sc), vehicle: saline.
The mark [5] stands for this setting: dose: 150.0 mg/kg/injection, schedule: Q04DX003 (sc), vehicle: suspension in saline.

Several values for one entry are separate records, joined by “and”; a condition that tells them apart may be missing. Equal values may be shown once. Results filed as inconclusive are left out.

As for `CCCC(=O)O.CCCC(=O)O.CCCC(=O)O.CCCC(=O)O.[Rh].[Rh]`, the T/C (dose: 2.0 mg/kg/injection, schedule: Q04DX003 (sc), vehicle: suspension in saline) is 48 % of control; the T/C (dose: 4.0 mg/kg/injection, schedule: Q04DX003 (sc), vehicle: suspension in saline) was 51 % of control; the T/C (dose: 8.0 mg/kg/injection, schedule: Q04DX003 (sc), vehicle: suspension in saline) is 42 % of control; the T/C (dose: 16.0 mg/kg/injection, schedule: Q04DX003 (sc), vehicle: suspension in saline) is 55 % of control.
Consider `CN1CCN(c2ccc([N+](=O)[O-])c3no[n+]([O-])c23)CC1`, for which the T/C (dose: 150.0 mg/kg/injection, schedule: Q04DX003 (sc), vehicle: saline with Tween-80) was 73 % of control.
Take `CC1OC(OC2CC(O)(C(=O)CO)Cc3c(O)c4c(c(O)c32)C(=O)c2ccccc2C4=O)CC(N)C1O` (stereo unspecified): the T/C was 57 % of control (dose: 0.5 mg/kg/injection, schedule: Q01DX010 (sc), vehicle: water) and 83 % of control (dose: 1.0 mg/kg/injection, schedule: Q01DX010 (sc), vehicle: water).
Take `CCCCCC#CC1OC12CCCCC2` (stereo unspecified): the T/C is 97 % of control (dose: 300.0 mg/kg/injection, schedule: Q04DX003 (sc), vehicle: saline with Tween-80); 93 % of control (dose: 600.0 mg/kg/injection, schedule: Q04DX003 (sc), vehicle: saline with Tween-80); 60 % of control (dose: 1200.0 mg/kg/injection, schedule: Q04DX003 (sc), vehicle: saline with Tween-80); 79 % of control (dose: 2400.0 mg/kg/injection, schedule: Q04DX003 (sc), vehicle: saline with Tween-80).
Turning to `CC(=O)O[C@@H]1CO[C@H]2O[C@H]3[C@@H](C(C=O)=C[C@H](O)[C@@H]4C5=C(C(C)C)CC[C@]5(C)CC[C@@]34C)[C@@]2(O)C1=O`, the T/C (dose: 100.0 mg/kg/injection, schedule: Q04DX003 (sc), vehicle: Klucel (hydroxypropylcellulose) (HPC)) was 94 % of control and the T/C (dose: 400.0 mg/kg/injection, schedule: Q04DX003 (sc), vehicle: Klucel (hydroxypropylcellulose) (HPC)) is 54 % of control.
For `CCO/C=C1\SC(=S)N(c2ccccc2C)C1=O`, the T/C was 26 % of control under setting [1]; 64 % of control under setting [2]; 76 % of control (dose: 400.0 mg/kg/injection, schedule: Q01DX010 (sc), vehicle: saline with Tween-80); 89 % of control (dose: 800.0 mg/kg/injection, schedule: Q01DX010 (sc), vehicle: saline with Tween-80).
As to `Nc1n[n+](-c2ccc(Cl)cc2)no1`, the T/C is 102 % of control (dose: 25.0 mg/kg/injection, schedule: Q04DX003 (sc), vehicle: water) and 95 % of control (dose: 100.0 mg/kg/injection, schedule: Q04DX003 (sc), vehicle: water).
Consider `CCN1/C(=C/C=C/C=C/c2sc3ccccc3[n+]2CC)Sc2ccccc21`, for which, for the setting “dose: 1.5 mg/kg/injection, schedule: Q04DX003 (sc), vehicle: saline”, the T/C was 57 % of control.
In the case of `CC(=O)OCC1OC(OC(C)=O)C(NC(=O)N(CCCl)N=O)C(OC(C)=O)C1OC(C)=O` (stereo unspecified), the T/C is 36 % of control (dose: 12.0 mg/kg/injection, schedule: Q04DX003 (sc), vehicle: Klucel (hydroxypropylcellulose) (HPC)) and 25 % of control (dose: 24.0 mg/kg/injection, schedule: Q04DX003 (sc), vehicle: Klucel (hydroxypropylcellulose) (HPC)).
For `Cc1c2ccncc2c(C)c2c1[nH]c1ccccc12`, the T/C runs as follows: (dose: 6.25 mg/kg/injection, schedule: Q01DX010 (sc), vehicle: saline) 24 % of control; (dose: 12.5 mg/kg/injection, schedule: Q01DX010 (sc), vehicle: saline) 85 % of control; (dose: 50.0 mg/kg/injection, schedule: Q01DX010 (sc), vehicle: saline) 72 % of control and 75 % of control; (dose: 100.0 mg/kg/injection, schedule: Q01DX010 (sc), vehicle: saline) 59 % of control.
Turning to `O=[N+]([O-])O.[Ga]`, the T/C is, setting by setting: (dose: 100.0 mg/kg/injection, schedule: Q04DX003 (sc), vehicle: saline) 92 % of control; (dose: 200.0 mg/kg/injection, schedule: Q04DX003 (sc), vehicle: saline) 86 % of control; (dose: 400.0 mg/kg/injection, schedule: Q04DX003 (sc), vehicle: saline) 86 % of control; (dose: 800.0 mg/kg/injection, schedule: Q04DX003 (sc), vehicle: saline) 83 % of control.
On to `CN(C)c1ccc2c(N(C)C)cc(N(C)C)nc2c1`, for which the T/C (dose: 9.38 mg/kg/injection, schedule: Q04DX003 (sc), vehicle: Klucel (hydroxypropylcellulose) (HPC)) is 102 % of control; the T/C (dose: 18.75 mg/kg/injection, schedule: Q04DX003 (sc), vehicle: Klucel (hydroxypropylcellulose) (HPC)) is 123 % of control; the T/C (dose: 37.5 mg/kg/injection, schedule: Q04DX003 (sc), vehicle: Klucel (hydroxypropylcellulose) (HPC)) was 96 % of control; the T/C (dose: 75.0 mg/kg/injection, schedule: Q04DX003 (sc), vehicle: Klucel (hydroxypropylcellulose) (HPC)) is 154 % of control.
For the molecule `COc1cccc2c1C(=O)c1c(O)c3c(c(O)c1C2=O)C[C@@](O)(C(C)=O)C[C@@H]3OC1CC(N(Cc2ccccc2)Cc2ccccc2)C(O)C(C)O1` (stereo partly specified), the T/C (dose: 25.0 mg/kg/injection, schedule: Q01DX010 (sc), vehicle: water) was 64 % of control.
As for `O=CC(=O)c1ccc(O)cc1`, the T/C was 51 % of control (dose: 150.0 mg/kg/injection, schedule: Q04DX003 (sc), vehicle: saline); 49 % of control under setting [3]; 58 % of control under setting [4].
On to `C1OC1CO[C@@H]1CO[C@H]2[C@@H]1OC[C@H]2OCC1CO1` (stereo partly specified), for which the T/C reads like this: (dose: 50.0 mg/kg/injection, schedule: Q01DX010 (sc), vehicle: saline with Tween-80) 95 % of control; under setting [1], 80 % of control; under setting [2], 65 % of control.
Turning to `COc1ccc(C(=O)c2no[n+]([O-])c2C(=O)c2ccc(OC)cc2)cc1`, the T/C was 84 % of control (dose: 100.0 mg/kg/injection, schedule: Q04DX003 (sc), vehicle: saline with Tween-80); 91 % of control (dose: 200.0 mg/kg/injection, schedule: Q04DX003 (sc), vehicle: saline with Tween-80); 99 % of control (dose: 400.0 mg/kg/injection, schedule: Q04DX003 (sc), vehicle: saline with Tween-80); 109 % of control (dose: 800.0 mg/kg/injection, schedule: Q04DX003 (sc), vehicle: saline with Tween-80).
For the molecule `CCOC(OCC)C(=O)OCC(=O)[C@]1(O)Cc2c(O)c3c(c(O)c2[C@@H](OC2CC(N)C(O)C(C)O2)C1)C(=O)c1c(OC)cccc1C3=O` (stereo partly specified), the T/C is 68 % of control (dose: 2.0 mg/kg/injection, schedule: Q01DX010 (sc), vehicle: water) and 27 % of control (dose: 4.0 mg/kg/injection, schedule: Q01DX010 (sc), vehicle: water).
For `COC1=NCN=C2SC=C(N)N=C12`, the T/C under setting [5] is 79 % of control.
Regarding `CN(C)[C@@H]1C(=O)C(C(N)=O)=C(O)[C@@]2(O)C(=O)C3=C(O)c4c(O)ccc(Cl)c4[C@@](C)(O)[C@H]3C[C@@H]12`, the T/C by setting is: under setting [3], 81 % of control; under setting [4], 200 % of control; (dose: 1200.0 mg/kg/injection, schedule: Q04DX003 (sc), vehicle: saline) 220 % of control.
In the case of `CC(=O)OCC(=O)[C@@]12OC(C)(C)O[C@@H]1C[C@H]1[C@@H]3CC(C=O)=C4C=C(OCCCl)CC[C@]4(C)[C@@]3(F)[C@@H](O)C[C@@]12C`, the T/C was 79 % of control (dose: 25.0 mg/kg/injection, schedule: Q04DX003 (sc), vehicle: Klucel (hydroxypropylcellulose) (HPC)) and 72 % of control (dose: 50.0 mg/kg/injection, schedule: Q04DX003 (sc), vehicle: Klucel (hydroxypropylcellulose) (HPC)).
As for `C[n+]1ccc2cc(N)c3c4ccccc4sc3c2c1`, the T/C is 67 % of control (dose: 6.25 mg/kg/injection, schedule: Q04DX003 (sc), vehicle: saline with Tween-80); 93 % of control (dose: 12.5 mg/kg/injection, schedule: Q04DX003 (sc), vehicle: saline with Tween-80); 70 % of control (dose: 25.0 mg/kg/injection, schedule: Q04DX003 (sc), vehicle: saline with Tween-80); 74 % of control (dose: 50.0 mg/kg/injection, schedule: Q04DX003 (sc), vehicle: saline with Tween-80).
As for `C=C1CC2(OC1=O)C(=O)N(C)c1ccc(I)cc12` (stereo unspecified), the T/C reads like this: under setting [5], 68 % of control; (dose: 300.0 mg/kg/injection, schedule: Q04DX003 (sc), vehicle: suspension in saline) 34 % of control; (dose: 600.0 mg/kg/injection, schedule: Q04DX003 (sc), vehicle: suspension in saline) 34 % of control; (dose: 1200.0 mg/kg/injection, schedule: Q04DX003 (sc), vehicle: suspension in saline) 62 % of control.
